Experimental findings from patent US9126891B2, “Cycloalkyl-diamines” (MediSynergics, LLC, priority 2014, dated 2015) are described below.

The test system of assay [1] is T. brucei brucei clone 427-221a (bloodstream forms). As to the kind of experiment: T. brucei brucei growth inhibition assay (CellTiter-Glo ATP bioluminescence). Type of assay: cell-based. As to conditions: 40 hours incubation, 95% Confidence Intervals in parentheses, read-out: T. b. brucei IC50. How it is done: The growth inhibition assay for T. brucei brucei was conducted as described previously by Z. B. Mackey (Kenny K. H. Ang, Joseline Ratnam, Jiri Gut, Jennifer Legac, Elizabeth Hansell, Zachary B. Mackey, Katarzyna M. Skrzypczynska, Anjan Debnath, Juan C. Engel, Philip J. Rosenthal, James H. McKerrow, Michelle R. Arkin, Adam R. Renslo (2010) “Mining a Cathepsin Inhibitor Library for New Antiparasitic Drug Leads”, PLoS Neglected Tropical Diseases, 5(5):e1023). Bloodstream forms of the monomorphic T. brucei brucei clone 427-221a were grown in complete HMI-9 medium containing 10% FBS, 10% Serum Plus medium (Sigma Inc., St. Louis, Mo., USA), 50 U/mL penicillin and […] streptomycin (Invitrogen) at 370 C under a humidified atmosphere and 5% CO2. […] of each dilution was added to […] of diluted parasites ([…]) in sterile Greiner 96-well flat white opaque culture plates such that the final DMSO concentration was 0.5%. The 0% inhibition control wells contained 0.5% DMSO while 100% inhibition control wells contained 50 mM thimerosal (Sigma-Aldrich, St. Louis, Mo.). After compound addition, plates were incubated for 40 hours at 370 C. At the end of the incubation period, […] of CellTiter-Glo™ reagent (Promega Inc., Madison, Wis., USA) was added to each well and plates were placed on an orbital shaker at room temperature for 2 min to induce lysis. After an additional 10 min of incubation without shaking, to stabilize the signal, the ATP-bioluminescence of each well was determined using an Analyst HT Plate Reader (Molecular Devices, Sunnyvale, Calif., USA). Raw values were converted to log 10 and percentage inhibition calculated relative to the controls. IC50 curve fittings were performed with Prism 4 software as above. Pentamidine was used as a comparator in the assay.

In the next assay the test system is P. falciparum strain 3D7. Kind of assay: Plasmodium falciparum activity assay (SYBR Green I method). The assay is classed as cell-based. As to conditions: strain 3D7 in human erythrocytes, 72 h incubation. Here is the method: P. falciparum strain 3D7 was cultured according to the method of Trager and Jensen (W. Trager, J. B. Jensen (1976) “Human malaria parasites in continuous culture”, Science, 193(4254):673-5) with minor modifications. Parasites were grown in human erythrocytes (2% hematocrit) in an atmosphere of 5% CO2, 5% O2, 90% N2 in RPMI 1640 medium (Gibco) supplemented with 25 mM hepes buffer (Sigma), 25 mg/L gentamicin (Gibco, Life Technologies, Grand Island, N.Y.), 1 mM sodium pyruvate (Sigma), 50 mg/L hypoxanthine (Sigma), 2 g/L glucose (Sigma), 2.52 g/L sodium bicarbonate (Sigma) and 5 g/L Albumax 1 (Gibco). In vitro antimalarial activity was determined by the SYBR Green I method described by Smilkstein (Smilkstein M, Sriwilaijaroen N, Kelly J X, Wilairat P, Riscoe M. (2004) “Simple and inexpensive fluorescence-based technique for high-throughput antimalarial drug screening”. Antimicrob. Agents Chemother., 48(5):1803-6. PMCID: 400546) with modifications (see Winter R W, Kelly J X, Smilkstein M J, Dodean R, Bagby G C, Rathbun R K (2006) “Evaluation and lead optimization of anti-malarial acridones”. Exp. Parasitol., 114(1):47-56). […] After incubation for 1 h at room temperature in the dark, plates were read on a Safire2 (Tecan) plate reader with excitation and emission wavelengths of […], respectively. […]

In general, IC50 refers to the point on the concentration scale where inhibition reaches its midpoint. In the case of `CN[C@]1(c2ccccc2Cl)CCCC[C@H]1NCCCn1ccnc1` (relative stereo) [Example 12a, Trans-1-(2-chlorophenyl)-N^2-(3-(1-imidazolyl)-propyl)-N^1-methylcyclohexane-1,2-diamine], the IC50 in assay [1] was 16 µM.
Consider `CN[C@@]1(c2ccccc2Cl)CCCC[C@H]1NCCCc1ccccc1` (relative stereo) [Example 15b, Cis-1-(2-chlorophenyl)-N^2-(3-phenylpropyl)-N^1-methylcyclohexane-1,2-diamine], for which the IC50 is 4.6 µM in assay [1] and 2.5 µM in the assay with P. falciparum strain 3D7.
For `CN[C@@]1(c2ccccc2Cl)CCCC[C@H]1NCCCN1CCOCC1` (relative stereo) [Example 16b, Cis-1-(2-chlorophenyl)-N^2-(3-(morpholin-1-yl)propyl)-N^1-methylcyclohexane-1,2-diamine], in that order: 1.7 µM and 18 µM.
